Results reported in article PMC6680845, “Screening and Evaluation of Xanthine Oxidase Inhibitors from Gnetum parvifolium in China” (Molecules, 2019).

What was measured:
xanthine oxidase (XO) = xanthine oxidase (XO) (Bos taurus, UniProt P80457); assay: XO inhibition type and kinetics (Lineweaver-Burk and secondary plots); assay type: biochemical; settings: for mode of XO inhibition: Lineweaver-Burk plots
Experimental: In order to further exploring the inhibitory activities of four inhibitors, the inhibition type and inhibition kinetics constants were assayed.
For inhibition test, 20 μL of XO solution (1 mg/mL in buffers) and 1 mL of sample with different concentrations were mixed in a quartz cuvette. Then, 1 mL of […] (1 mg/mL) was added to start reaction and the increase of absorbance at 295 nm in 100 s was recorded by an UV-Vis Spectrophotometer (UV2700, Shimadzu, Kyoto, Japan). […] All experiments were performed in triplicate. The inhibition of XO was calculated by the following formula. Inhibition% = (1 − ΔAs/ΔA0) × 100 (1) where ΔAs and ΔA0 are the changes of absorbance for sample and blank, respectively.

[1] = DPPH free radical scavenging test; settings: DPPH 0.1 mM in methanol, 30 min in dark, 517 nm
Experimental: The DPPH and ABTS· radical scavenging tests were measured according to the reported method with some modifications. For DPPH test, 0.5 mL of sample with different concentrations were mixed thoroughly with 2 mL of DPPH solution (0.1 mM in methanol). The mixture was then kept in dark for 30 min. Finally, the absorbance of solution was measured by an UV-Vis Spectrophotometer (UV2700, Shimadzu, Kyoto, Japan) at 517 nm.
(§1) For ABTS test, ABTS solution (2 mL of ABTS stock solution (0.01 M) added to 58 mL phosphate buffers, pH 7.0) was incubated for 12 h and diluted with methanol for use. Then, 0.5 mL of samples with different concentrations were mixed thoroughly with 2 mL of ABTS solution. The mixture was kept in dark for 30 min, and the absorbance at 734 nm was measured by an UV-Vis Spectrophotometer. The same amount of water was used as control instead of sample. All experiments were performed in triplicate. The scavenging activity of DPPH and ABTS· radicals was calculated by the following formula: Radical scavenging rate% = 1 − As/A0 × 100 (2) where A0 was the absorbance of control and As was the absorbance of sample.

[2] = ABTS radical scavenging test; settings: 30 min in dark, 734 nm
Experimental: as §1

Chain of xanthine oxidase (XO) (P80457 2-1332): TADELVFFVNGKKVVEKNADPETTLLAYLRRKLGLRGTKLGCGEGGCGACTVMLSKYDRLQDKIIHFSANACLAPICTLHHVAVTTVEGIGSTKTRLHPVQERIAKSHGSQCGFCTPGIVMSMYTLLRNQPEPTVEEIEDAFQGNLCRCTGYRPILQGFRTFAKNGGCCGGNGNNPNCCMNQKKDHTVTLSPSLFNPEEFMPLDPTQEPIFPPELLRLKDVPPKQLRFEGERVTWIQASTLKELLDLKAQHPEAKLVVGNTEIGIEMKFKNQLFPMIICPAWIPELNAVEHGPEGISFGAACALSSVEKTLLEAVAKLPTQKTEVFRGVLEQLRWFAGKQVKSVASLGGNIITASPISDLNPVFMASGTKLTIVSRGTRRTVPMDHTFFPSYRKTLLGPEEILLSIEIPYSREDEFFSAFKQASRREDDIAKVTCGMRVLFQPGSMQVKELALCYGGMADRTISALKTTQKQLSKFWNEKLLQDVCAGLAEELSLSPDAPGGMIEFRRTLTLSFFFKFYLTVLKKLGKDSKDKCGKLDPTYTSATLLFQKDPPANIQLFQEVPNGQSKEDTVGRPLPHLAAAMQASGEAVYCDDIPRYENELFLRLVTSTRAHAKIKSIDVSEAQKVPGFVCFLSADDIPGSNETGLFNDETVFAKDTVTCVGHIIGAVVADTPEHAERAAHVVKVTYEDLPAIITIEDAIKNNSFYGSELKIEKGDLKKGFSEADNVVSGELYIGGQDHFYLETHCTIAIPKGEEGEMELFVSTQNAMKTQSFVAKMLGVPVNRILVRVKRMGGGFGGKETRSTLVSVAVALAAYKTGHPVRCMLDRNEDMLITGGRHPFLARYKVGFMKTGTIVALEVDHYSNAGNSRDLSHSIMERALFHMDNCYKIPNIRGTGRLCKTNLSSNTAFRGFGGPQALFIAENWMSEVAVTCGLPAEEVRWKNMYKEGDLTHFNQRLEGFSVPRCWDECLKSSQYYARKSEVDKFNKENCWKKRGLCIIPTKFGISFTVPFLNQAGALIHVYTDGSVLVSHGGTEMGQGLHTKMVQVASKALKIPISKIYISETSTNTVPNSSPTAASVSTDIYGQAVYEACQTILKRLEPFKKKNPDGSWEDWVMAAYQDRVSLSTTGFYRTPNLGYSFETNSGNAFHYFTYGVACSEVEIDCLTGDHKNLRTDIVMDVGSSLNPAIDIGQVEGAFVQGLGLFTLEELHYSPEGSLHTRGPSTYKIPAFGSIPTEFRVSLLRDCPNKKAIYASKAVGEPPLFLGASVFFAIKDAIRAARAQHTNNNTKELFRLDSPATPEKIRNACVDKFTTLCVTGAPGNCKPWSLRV

Row | SMILES | mode of XO inhibition (xanthine oxidase (XO)) | Vmax (xanthine oxidase (XO); inhibitor [C] 2.6 μM) | Vmax (xanthine oxidase (XO); inhibitor [C] 3.9 μM) | Vmax (xanthine oxidase (XO); inhibitor [C] 5.3 μM) | EC50 [1] | EC50 [2] | Vmax (xanthine oxidase (XO); inhibitor [C] 3.3 μM) | Vmax (xanthine oxidase (XO); inhibitor [C] 4.9 μM) | Vmax (xanthine oxidase (XO); inhibitor [C] 6.6 μM)
1 | COc1cc(/C=C/c2cc(O)cc(O)c2)ccc1O [Isorhapontigenin] | uncompetitive type | 0.168 mmol/min | 0.134 mmol/min | 0.061 mmol/min | 1450 µM | 300 µM |  |  | 
2 | Oc1cc(O)cc(/C=C/c2ccc(O)c(O)c2)c1 [Piceatannol] | competitive type |  |  |  | 40 µM |  | 0.160 mmol/min | 0.164 mmol/min | 0.157 mmol/min
3 | Oc1ccc(/C=C/c2cc(O)cc(O)c2)cc1 [Resveratrol] | uncompetitive type |  |  |  |  |  | 0.173 mmol/min | 0.106 mmol/min | 0.088 mmol/min
